Biological target: T1, HTR2B (Homo sapiens, UniProt P41595)
T1 construct: purchased Promega (in-house HiBiT-GPCR construct library, NanoBRET)
Assay: NanoBRET screen HiBiT-HTR2B in HEK293
Assay type: binding
Method: Each tracer candidate was screened across the entire library of HiBiT-GPCR constructs using NanoBRET as the detection modality. As depicted in Figure 4A, the specificity of interactions was evaluated through decrease in BRET due to competitive displacement of a bound tracer by excess parental compound. Each tracer was analyzed for binding to each HiBiT-GPCR fusion in the absence and in the presence of competing parental compound. Briefly, HEK293 cells were transfected with HiBiT-GPCR constructs diluted into promoterless DNA to reduce expression and maximize translocation to the cell surface. Each tracer candidate was then screened at concentrations of 1 μM and 0.1 μM across cells expressing these fusions. Cells were treated for 1.5 h with tracer either alone or in the presence of 20 μM competing parental compound (i.e., control). BRET was measured upon addition of purified LgBiT and subsequent complementation with HiBiT genetically fused to a GPCR. The specificity of interactions was assessed through a decrease in BRET signal due to competitive displacement of the bound tracer. To further gauge the robustness of these interactions, the fold response over the control (i.e., BRETtracer/BRETcontrol) was calculated. We chose a 1.5-fold response, which translates to ≥7-fold signal over noise as the minimal threshold required to score an interaction as positive.
HiBiT-GPCR DNA constructs were diluted in 10 mM Tris pH 8 to a final concentration of 0.01 μg/μL, arrayed in 96-well plates and stored at −20 °C. For transfection, HEK293 cells were suspended in Opti-MEM (without phenol red) supplemented with 2% fetal bovine serum (Seradigm) and 100 units/mL penicillin–streptomycin (Gibco) at a final concentration of 220,000 cells/mL and dispensed into white 96-well plates at 90 μL/well. Subsequent transfections and screens were carried using an Agilent Bravo Automated Liquid Handling Platform. First, the 96-well HiBiT DNA arrays were diluted 25-fold in Opti-MEM (without serum or phenol red) to a final concentration of 0.0004 μg/μL and 20 μL of the diluted DNAs were transferred into new 96-well plates. Next, promoterless carrier DNA (1 μg/μL) was diluted 25-fold (0.04 μg/μL) and then dispensed into the diluted arrays at 20 μL/well. Following brief mixing, Viafect transfection reagent (Promega) diluted 16-fold into Opti-MEM was dispensed into the plates at 40 μL/well. After mixing by pipetting, plates were incubated for 10 min on the pipetting station deck. The DNA-transfection reagent complexes were then added to plates containing cells. To facilitate the screen, 10 μL of DNA-transfection reagent complexes were added in duplicates to the top 4 and bottom 4 rows, resulting in two identical 48-well arrays per plate. Plates with transfected cells were incubated for 18–20 h at 37 °C/5% CO2. A screen of each tracer across the entire library using two different concentrations requires duplicate plates of transfected cells. Depending on the number of tracers being screened, transfections can be scaled up using the same ratios. The next day, for each tracer, four 20× screening solutions in tracer dilution buffer (Promega) were prepared: two duplicates at final concentration of 20 μM and two duplicates at a final concentration of 2 μM. […] The four resulting solutions were diluted 4-fold in Opti-MEM without serum or phenol red to generate 5× solutions (5 µM and 0.5 µM tracer +/− 100 μM competing compound). To screen the library, a BioTek MultiFlo FX liquid dispenser was used to dispense 22.5 µL of tracer solution to the top 4 rows and 22.5 µL tracer + competing compound solution to the 4 bottom rows. Plates were briefly mixed on an orbital shaker and incubated for 1.5 h at room temperature. […] Plates were briefly mixed on an orbital shaker and incubated for 15 min to allow complementation.

T1 sequence (P41595 whole entry): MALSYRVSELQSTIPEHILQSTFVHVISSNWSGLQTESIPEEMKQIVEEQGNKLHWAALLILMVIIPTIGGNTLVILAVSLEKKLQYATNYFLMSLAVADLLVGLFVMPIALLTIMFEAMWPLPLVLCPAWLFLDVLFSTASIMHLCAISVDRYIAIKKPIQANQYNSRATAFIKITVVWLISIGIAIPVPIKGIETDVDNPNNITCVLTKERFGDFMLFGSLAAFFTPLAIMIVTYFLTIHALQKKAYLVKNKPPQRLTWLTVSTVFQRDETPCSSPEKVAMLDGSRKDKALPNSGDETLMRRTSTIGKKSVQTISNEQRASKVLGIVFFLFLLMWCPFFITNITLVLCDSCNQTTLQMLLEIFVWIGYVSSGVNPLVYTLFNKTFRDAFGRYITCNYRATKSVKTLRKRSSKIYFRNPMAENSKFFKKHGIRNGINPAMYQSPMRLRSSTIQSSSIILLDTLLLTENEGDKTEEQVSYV

## CN(C)CCC=C1c2ccccc2CCc2ccc(C(=O)NCCNC(=O)CCOCCOCCOCCOCCNC(=O)CCc3ccc4n3[B-](F)(F)[N+]3=C(c5ccc[nH]5)C=CC3=C4)cc21 [Amitriptyline-b-2-NB590]
Tracer at 0.1μM, listed as amitriptyline-b-2-NB590
  NanoBRET Fold Response: 1.05
Tracer at 1μM, listed as amitriptyline-b-2-NB590
  NanoBRET Fold Response: 0.74

## CCOC(=O)c1cc(C#N)c(N2CCC(C(=O)NS(=O)(=O)Cc3ccccc3/C=C/C(=O)NCCNC(=O)CCc3ccc4n3[B-](F)(F)[N+]3=C(c5ccc[nH]5)C=CC3=C4)CC2)nc1C [AZD1283-1-NB590]
HTR2B, 0.1μM
  NanoBRET Fold Response: 1.31
HTR2B, 1μM
  NanoBRET Fold Response: 1.15

## CC(C)N(CC[C@H](c1ccccc1)c1cc(CCNC(=O)CCOCCOCCOCCOCCNC(=O)CCc2ccc3n2[B-](F)(F)[N+]2=C(c4ccc[nH]4)C=CC2=C3)ccc1O)C(C)C [Tolterodine-2-NB590]
HTR2B, tracer 0.1μM
  NanoBRET Fold Response: 0.68
HTR2B, tracer 1μM
  NanoBRET Fold Response: 0.81

## CC(C)N(CC[C@H](c1ccccc1)c1cc(CCNC(=O)c2ccc(CNC(=O)CCc3ccc4n3[B-](F)(F)[N+]3=C(c5ccc[nH]5)C=CC3=C4)cc2)ccc1O)C(C)C [Tolterodine-BZ-NB590]
HTR2B, tracer 0.1μM
  NanoBRET Fold Response: 0.83
HTR2B, tracer 1μM
  NanoBRET Fold Response: 1.07

## O=C(CCOCCOCCOCCOCCNC(=O)CCc1ccc2n1[B-](F)(F)[N+]1=C(c3ccc[nH]3)C=CC1=C2)NCCCN1CCN(C2=Nc3ccccc3Oc3ccc(Cl)cc32)CC1 [Loxapine-a-2-NB590]
HTR2B, tracer 0.1μM
  NanoBRET Fold Response: 1.04
HTR2B, tracer 1μM
  NanoBRET Fold Response: 1.25

## CN(C)CCC=C1c2ccccc2CCc2ccc(C(=O)NCCNC(=O)CCOCCOCCOCCOCCNC(=O)CCc3ccc4n3[B-](F)(F)[N+]3=C(c5ccc[nH]5)C=CC3=C4)cc21 [Amitriptyline-a-2-NB590]
Tracer at 0.1μM
  NanoBRET Fold Response: 0.98
Tracer at 1μM
  NanoBRET Fold Response: 1.09

## Cc1nc2n(c(=O)c1CCN1CCC(c3noc4cc(F)ccc34)CC1)CCCC2OC(=O)NCCOCCOCCOCCOCCNC(=O)CCc1ccc2n1[B-](F)(F)[N+]1=C(c3ccc[nH]3)C=CC1=C2 (centres unmarked) [Risperidone-2-NB590]
HTR2B, tracer 0.1μM
  NanoBRET Fold Response: 1.03
HTR2B, tracer 1μM
  NanoBRET Fold Response: 1.32

## COc1ccc2[nH]c(-c3ccc(CNC(=O)CCOCCOCCOCCOCCNC(=O)CCc4ccc5n4[B-](F)(F)[N+]4=C(c6ccc[nH]6)C=CC4=C5)cc3)c(CCNC(C)=O)c2n1 [AzomelatoninICO9-2-NB590]
0.1μM tracer
  NanoBRET Fold Response: 0.81
1μM tracer
  NanoBRET Fold Response: 1.08

## COc1ccccc1N1CCN(CCCCN2C(=O)c3ccc(CNC(=O)CCOCCOCCOCCOCCNC(=O)CCc4ccc5n4[B-](F)(F)[N+]4=C(c6ccc[nH]6)C=CC4=C5)cc3C2=O)CC1 [NAN-190-2-NB590]
HTR2B, tracer 0.1μM
  NanoBRET Fold Response: 0.92

## O=C(CCc1ccc2n1[B-](F)(F)[N+]1=C(c3ccc[nH]3)C=CC1=C2)NCCOCCOCCNC(=O)OCCOCCN1CCN(C2=Nc3ccccc3Sc3ccccc32)CC1 [Quetiapine-a-2-NB590]
HTR2B, tracer 0.1μM
  NanoBRET Fold Response: 1.51
HTR2B, tracer 1μM
  NanoBRET Fold Response: 1.14

## O=C(CCOCCOCCOCCOCCNC(=O)CCc1ccc2n1[B-](F)(F)[N+]1=C(c3ccc[nH]3)C=CC1=C2)NCCCN1CCN(C2=Nc3cc(Cl)ccc3Nc3ccccc32)CC1 [Clozapine-a-2-NB590]
HTR2B, 0.1μM tracer
  NanoBRET Fold Response: 1.08
HTR2B, 1μM tracer
  NanoBRET Fold Response: 1.14

## N#CN=C(NCCCOc1cccc(CN2CCCCC2)c1)NCCNC(=O)CCOCCOCCOCCOCCNC(=O)CCc1ccc2n1[B-](F)(F)[N+]1=C(c3ccc[nH]3)C=CC1=C2 [Aminopotentidine-2-NB590]
HTR2B, tracer 0.1μM
  NanoBRET Fold Response: 0.90
HTR2B, tracer 1μM
  NanoBRET Fold Response: 0.91

## O=C(CCc1ccc2n1[B-](F)(F)[N+]1=C(c3ccc[nH]3)C=CC1=C2)NCc1ccc(C(=O)NCCOCCOCCNCC(O)COc2cccc3ccccc23)cc1 (centres unmarked) [Propranolol-3-NB590]
HTR2B, 0.1μM
  NanoBRET Fold Response: 1.13
HTR2B, 1μM
  NanoBRET Fold Response: 1.00

## O=C(CCc1ccc2n1[B-](F)(F)[N+]1=C(c3ccc[nH]3)C=CC1=C2)NCc1ccc(C(=O)NCCOCCC(=O)N[C@@H]2CC[C@@]3(O)[C@H]4Cc5ccc(O)c6c5[C@@]3(CCN4CC3CC3)[C@H]2O6)cc1 [Naltrexone-3-NB590]
HTR2B, tracer 0.1μM
  NanoBRET Fold Response: 1.13
HTR2B, tracer 1μM
  NanoBRET Fold Response: 0.98

## COc1ccccc1N1CCN(CCCCN2C(=O)c3ccc(CNC(=O)CCOCCNC(=O)c4ccc(CNC(=O)CCc5ccc6n5[B-](F)(F)[N+]5=C(c7ccc[nH]7)C=CC5=C6)cc4)cc3C2=O)CC1 [NAN-190-3-NB590]
HTR2B, tracer 0.1μM
  NanoBRET Fold Response: 0.92
HTR2B, tracer 1μM
  NanoBRET Fold Response: 0.80

## Cc1cc2c(s1)Nc1ccccc1N=C2N1CCN(CCCNC(=O)CCOCCOCCOCCOCCNC(=O)CCc2ccc3n2[B-](F)(F)[N+]2=C(c4ccc[nH]4)C=CC2=C3)CC1 [Olanzapine-a-2-NB590]
HTR2B, tracer 0.1μM
  NanoBRET Fold Response: 1.12
HTR2B, tracer 1μM
  NanoBRET Fold Response: 1.36

## CCCn1c(=O)c2[nH]c(-c3ccc(OCC(=O)NCCNC(=O)CCOCCNC(=O)c4ccc(CNC(=O)CCc5ccc6n5[B-](F)(F)[N+]5=C(c7ccc[nH]7)C=CC5=C6)cc4)cc3)nc2n(CCC)c1=O [XAC-3-NB590]
HTR2B, tracer 0.1μM
  NanoBRET Fold Response: 1.29
HTR2B, tracer 1μM
  NanoBRET Fold Response: 0.78

## N#CN/C(=N\CCNC(=O)c1ccc(N)cc1)NCCCOc1cccc(CN2CCCCC2)c1 [Aminopotentidine (unmodified)]
HTR2B, other tracers/Aminopotentidine (unmodified), 0.1μM
  NanoBRET Fold Response: 1.03
HTR2B, other tracers/Aminopotentidine (unmodified), 1μM
  NanoBRET Fold Response: 0.97

## CN(CCC=C1c2ccccc2CCc2ccccc21)C(=O)CCOCCOCCOCCOCCNC(=O)CCc1ccc2n1[B-](F)(F)[N+]1=C(c3ccc[nH]3)C=CC1=C2 [Amitriptyline-e-2-NB590]
Tracer at 1μM
  NanoBRET Fold Response: 1.02

## COc1ccc2c(n1)c(CCNC(C)=O)cn2CCNC(=O)CCc1ccc2n1[B-](F)(F)[N+]1=C(c3ccc[nH]3)C=CC1=C2 [Azamelatonin-1-NB590]
0.1μM tracer
  NanoBRET Fold Response: 0.98
1μM tracer
  NanoBRET Fold Response: 0.98
